Laboratory results taken from patent publication US20260184707A1, “PHARMACEUTICAL COMPOUNDS FOR THE TREATMENT OF COMPLEMENT MEDIATED DISORDERS” (ALEXION PHARMACEUTICALS, INC., priority 2022, published 2026).

biological target: T1, Human complement C1s enzyme (Homo sapiens, UniProt P09871); assay: Human C1s enzyme assay; format: biochemical; settings: human complement C1s enzyme 1.16 nM, substrate Z-L-Lys-SBzl, A405; read-out: IC50 (Stars)
T1 construct: purified from human serum, Complement Technology, Inc; purchased Complement Technology, Inc; host or cells: human serum (plasma-derived native protein)
T1 sequence (P09871 438-688 limits assumed): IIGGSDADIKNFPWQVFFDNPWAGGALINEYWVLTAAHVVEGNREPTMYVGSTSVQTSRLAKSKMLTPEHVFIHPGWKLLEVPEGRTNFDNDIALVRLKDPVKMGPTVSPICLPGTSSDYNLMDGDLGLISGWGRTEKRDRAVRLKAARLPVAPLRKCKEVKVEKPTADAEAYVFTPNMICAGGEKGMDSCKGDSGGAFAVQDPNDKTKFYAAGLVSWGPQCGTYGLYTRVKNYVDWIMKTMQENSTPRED
T1 sequence (P09871 16-437 partner limits assumed): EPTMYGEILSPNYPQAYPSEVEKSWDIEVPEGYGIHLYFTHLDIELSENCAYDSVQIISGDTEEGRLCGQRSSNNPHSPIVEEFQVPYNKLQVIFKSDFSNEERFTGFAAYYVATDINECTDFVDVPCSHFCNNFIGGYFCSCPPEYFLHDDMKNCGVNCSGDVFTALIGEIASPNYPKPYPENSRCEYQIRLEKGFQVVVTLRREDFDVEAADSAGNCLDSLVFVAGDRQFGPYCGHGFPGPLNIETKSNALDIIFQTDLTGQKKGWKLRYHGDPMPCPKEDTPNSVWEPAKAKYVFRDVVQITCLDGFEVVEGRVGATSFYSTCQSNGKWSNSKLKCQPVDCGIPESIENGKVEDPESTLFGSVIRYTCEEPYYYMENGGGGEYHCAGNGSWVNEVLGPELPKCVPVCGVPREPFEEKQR
Experimental: The […] values of the compounds of Table 1 were determined with the human C1s enzyme assay described below. Other standard complement assays are also available.
Human complement C1s enzyme (purified from human serum, Complement Technology, Inc.) at 1.16 nM final concentration was incubated with test compound at various concentrations for 5 min at room temperature in 50 mM Tris, 1 M NaCl, pH 7.5. A synthetic substrate Z-L-Lys-SBzl and DTNB (Ellman's reagent) were added to final concentrations of 100 μM each. Absorbance at 405 nm (A405) was recorded at 30 second intervals for […] using a microplate spectrophotometer. IC values were calculated by nonlinear regression of complement C1s reaction rates as a function of test compound concentration.
[…]; ND indicates a compound for which the IC50 value is not determined.

Q: Which IC50 does the source give for `O=C(Cn1c(-c2ccccc2)ncc(NC(=O)c2ccc(-c3ccccc3)s2)c1=O)NCc1ccc(Cl)cc1` [Compound 256, N-(1-(2-((4-chlorobenzyl)-amino)-2-oxoethyl)-6-oxo-2-phenyl-1,6-dihydropyrimidin-5-yl)-5-phenylthiophene-2-carboxamide] here?
A: Its IC50 is > 1 µM.

Q: How did the IC50 turn out when `Cc1ccc(F)c(-c2ncc(N[C@H](C)c3ccc4oc5ccccc5c4c3)c(=O)n2CC(=O)NCc2cc3cnccc3[nH]2)c1` [Compound 438, (R)-N-((1H-pyrrolo[3,2-c]pyridin-2-yl)methyl)-2-(5-((1-(dibenzo[b,d]furan-2-yl)ethyl)-amino)-2-(2-fluoro-5-methyl-phenyl)-6-oxopyrimidin-1(6H)-yl)acetamide] was run?
A: Its IC50 is < 0.1 µM.

Q: Which IC50 does the source give for `O=C(Cn1c(N2CC(F)C2)ncc(NCc2ccc3oc4ccccc4c3c2)c1=O)NCc1cc2cnccc2[nH]1` [Compound 270, 2-[5-(dibenzofuran-2-ylmethylamino)-2-(3-fluoroazetidin-1-yl)-6-oxo-pyrimidin-1-yl]-N-(1H-pyrrolo[3,2-c]pyridine-2-ylmethyl)acetamide] here?
A: The IC50 was < 0.1 µM.

Q: For `CS(=N)(=O)c1ccc(-c2ncc(NCCCc3ccccc3)c(=O)n2CC(=O)NCc2cc3cnccc3[nH]2)cc1` (stereo not shown) [Compound 200, N-((1H-pyrrolo[3,2-c]pyridine-2-yl)methyl)-2-(2-(4-(S-methylsulfonimidoyl)phenyl)-6-oxo-5-((3-phenylpropyl)amino)pyrimidin-1(6H)-yl)acetamide], which IC50 is on record?
A: Its IC50 is < 0.1 µM.

Q: How did the IC50 turn out when `COC[C@H]1CN(c2ncc(N[C@H](C)c3ccc4oc5ccccc5c4c3)c(=O)n2CC(=O)NCc2cc3cnccc3[nH]2)CCO1` [Compound 469, N-((1H-pyrrolo[3,2-c]pyridin-2-yl)methyl)-2-(5-(((R)-1-(dibenzo[b,d]furan-2-yl)ethyl)-amino)-2-((R)-2-(methoxy-methyl)morpholino)-6-oxo-pyrimidin-1(6H)-yl)acetamide] was run?
A: Its IC50 is 0.1 to 1 µM.

Q: Which IC50 does the source give for `C[C@H](NC(=O)Cn1c(-c2ccccc2)cnc(NCCCc2ccccc2)c1=O)c1cc2cnccc2[nH]1` [Compound 47, (S)-N-(1-(1H-pyrrolo[3,2-c]pyridin-2-yl)ethyl)-2-(2-oxo-6-phenyl-3-((3-phenylpropyl)-amino)pyrazin-1(2H)-yl)-acetamide] here?
A: The IC50 was > 1 µM.

Q: With `COCC(=O)N1CCN(c2ncc(N[C@H](C)c3ccc4oc5ccccc5c4c3)c(=O)n2CC(=O)NCc2cc3cnccc3[nH]2)CC1` [Compound 482, (R)-N-((1H-pyrrolo[3,2-c]pyridin-2-yl)methyl)-2-(5-((1-(dibenzo[b,d]furan-2-yl)ethyl)-amino)-2-(4-(2-methoxyacet-yl)piperazin-1-yl)-6-oxopyr-imidin-1(6H)-yl)acetamide] as the molecule, how does the IC50 read?
A: The IC50 was < 0.1 µM.

Q: For `O=C(Cn1c(-c2ccccc2)ncc(NC(=O)c2cnc(-c3ccccc3)s2)c1=O)NCc1cc2cnccc2[nH]1` [Compound 106, N-(1-(2-(((1H-pyrrolo[3,2-c]pyridin-2-yl)methyl)amino)-2-oxoethyl)-6-oxo-2-phenyl-1,6-dihydropyrimidin-5-yl)-2-phenylthiazole-5-carboxamide], which IC50 is on record?
A: Its IC50 is < 0.1 µM.

Q: How did the IC50 turn out when `C[C@@H](Nc1cnc(-c2ccccc2)n(CC(=O)NCc2cc3cnccc3[nH]2)c1=O)c1ccc(-c2ccccc2F)cc1` [Compound 307, (R)-N-((1H-pyrrolo[3,2-c]pyridin-2-yl)methyl)-2-(5-((1-(2′-fluoro-[1,1′-biphenyl]-4-yl)ethyl)amino)-6-oxo-2-phen-ylpyrimidin-1(6H)-yl)acet-amide] was run?
A: The IC50 was < 0.1 µM.

Q: How did the IC50 turn out when `CO[C@@H]1CO[C@H]2[C@@H]1OC[C@H]2OCCCNc1cnc(-c2ccccc2)n(CC(=O)NCc2cc3cnccc3[nH]2)c1=O` [Compound 95, N-((1H-pyrrolo[3,2-c]pyridine-2-yl)methyl)-2-(5-((3-(((3R,3aR,6R,6aR)-6-methoxyhexahydrofuro[3,2-b]furan-3-yl)oxy)propyl)amino)-6-oxo-2-phenylpyrimidin-1(6H)-yl)acetamide] was run?
A: The IC50 was < 0.1 µM.

Q: Which IC50 does the source give for `O=C(Cn1c(-c2ccccc2)ncc(NC(=O)CCC(=O)c2ccc(Oc3ccccc3)cc2)c1=O)NCc1cc2cnccc2[nH]1` [Compound 23, N-(1-(2-(((1H-pyrrolo[3,2-c]pyridin-2-yl)methyl)amino)-2-oxoethyl)-6-oxo-2-phenyl-1,6-dihydropyrimidin-5-yl)-4-oxo-4-(4-phenoxyphenyl)butanamide] here?
A: Its IC50 is < 0.1 µM.

Q: `O=C(Cn1c(N2CCOCC2)cnc(NC(=O)c2coc(-c3ccccc3)n2)c1=O)NCc1cc2cnccc2[nH]1` [Compound 492, N-(4-(2-(((1H-Pyrrolo[3,2-c]pyridine-2-yl)methyl)amino)-2-oxoethyl)-5-morpholino-3-oxo-3,4-dihydropyrazin-2-yl)-2-phenyloxazole-4-carboxamide] was tested. Which IC50 did it give?
A: The IC50 was < 0.1 µM.

Q: For `O=C(Cn1c(-c2ccco2)ncc(NCc2ccc3oc4ccccc4c3c2)c1=O)NCc1cc2cnccc2[nH]1` [Compound 232, N-((1H-pyrrolo[3,2-c]pyridin-2-yl)methyl)-2-(5-((dibenzo [b,d]furan-2-ylmethyl)amino)-2-(furan-2-yl)-6-oxopyrimidin-1(6H)-yl)acetamide], which IC50 is on record?
A: The IC50 was < 0.1 µM.

Q: `CC1CCCN(c2ncc(N[C@H](C)c3ccc4oc5ccccc5c4c3)c(=O)n2CC(=O)NCc2cc3cnccc3[nH]2)C1` (stereo partly drawn) [Compound 381, N-((1H-pyrrolo[3,2-c]pyridin-2-yl)methyl)-2-(5-(((R)-1-(dibenzo[b,d]furan-2-yl)ethyl)-amino)-2-(3-methylpiperidin-1-yl)-6-oxopyrimidin-1(6H)-yl)acetamide] was tested. Which IC50 did it give?
A: The IC50 was > 1 µM.

Q: Which IC50 does the source give for `O=C(Cn1c(-c2ccccc2)ncc(NC(=O)c2ccc(C(=O)c3ccccc3)cc2)c1=O)NCc1cc2cnccc2[nH]1` [Compound 73, N-(1-(2-(((1H-pyrrolo[3,2-c]pyridin-2-yl)methyl)amino)-2-oxoethyl)-6-oxo-2-phenyl-1,6-dihydropyrimidin-5-yl)-4-benzoylbenzamide] here?
A: Its IC50 is < 0.1 µM.

Q: `O=C(CN1C(=O)[C@H](NCCCc2ccccc2)CC[C@H]1c1ccccc1)NCc1cc2cnccc2[nH]1` [Compound 490, N-((1H-pyrrolo[3,2-c]pyridin-2-yl)methyl)-2-((3R,6S)-2-oxo-6-phenyl-3-((3-phenylpropyl)-amino)piperidin-1-yl)acetamide] was tested. Which IC50 did it give?
A: The IC50 was > 1 µM.

Q: With `C[C@@H](Nc1cnc(-c2ccccc2F)n(CC(=O)NCc2cc3cnccc3[nH]2)c1=O)c1ccc(-c2ccccc2F)cc1` [Compound 308, (R)—N-((1H-pyrrolo[3,2-c]pyridine-2-yl)methyl)-2-(5-((1-(2′-fluoro-[1,1′-biphenyl]-4-yl)ethyl)amino)-2-(2-fluorophenyl)-6-oxopyrimidin-1(6H)-yl)acetamide] as the molecule, how does the IC50 read?
A: The IC50 was < 0.1 µM.

Q: Which IC50 does the source give for `O=C(Cn1c(-c2ccccc2)ncc(NCCCc2ccc(OC3COC3)cc2)c1=O)NCc1cc2cnccc2[nH]1` [Compound 103, N-((1H-pyrrolo[3,2-c]pyridine-2-yl)methyl)-2-(5-((3-(4-(oxetan-3-yl-oxy)phenyl)propyl)amino)-6-oxo-2-phenylpyrimidin-1(6H)-yl)acetamide] here?
A: The IC50 was < 0.1 µM.

Q: How did the IC50 turn out when `O=C(Cn1c(-c2ccccc2)ncc(NC(=O)c2coc(-c3cccc(F)c3)n2)c1=O)NCc1cc2cnccc2[nH]1` [Compound 205, N-(1-(2-(((1H-pyrrolo[3,2-c]pyridine-2-yl)methyl)amino)-2-oxoethyl)-6-oxo-2-phenyl-1,6-dihydropyrimidin-5-yl)-2-(3-fluorophenyl)oxazole-4-carboxamide] was run?
A: The IC50 was < 0.1 µM.

Q: Which IC50 does the source give for `COc1ccc(-c2ncc(N[C@H](C)c3ccc4oc5ccccc5c4c3)c(=O)n2CC(=O)NCc2cc3cnccc3[nH]2)cc1` [Compound 248, (R)-N-((1H-pyrrolo[3,2-c]pyr-idin-2-yl)methyl)-2-(5-((1-(dibenzo[b,d]furan-2-yl)ethyl)-amino)-2-(4-methoxyphenyl)-6-oxopyrimidin-1(6H)-yl)-acetamide] here?
A: The IC50 was < 0.1 µM.

Q: `O=C(Cn1c(-c2ccccc2)ncc(NC(=O)c2ccc(-c3ccc(F)cc3F)cc2)c1=O)NCc1cc2cnccc2[nH]1` [Compound 92, N-(1-(2-(((1H-pyrrolo[3,2-c]pyridin-2-yl)methyl)amino)-2-oxoethyl)-6-oxo-2-phenyl-1,6-dihydropyrimidin-5-yl)-2′,4′-difluoro-[1,1′-biphenyl]-4-carboxamide] was tested. Which IC50 did it give?
A: Its IC50 is < 0.1 µM.

Q: For `O=C(CN1C(=O)[C@@H](NCCCc2ccccc2)CC[C@H]1c1ccccc1)NCc1cc2cnccc2[nH]1` (relative stereo) [Compound 489, N-((1H-Pyrrolo[3,2-c]pyridine-2-yl)methyl)-2-((3S*,6S*)-2-oxo-6-phenyl-3-((3-phenylpropyl)amino)piperidin-1-yl)acetamide], which IC50 is on record?
A: The IC50 was > 1 µM.
